This note sets out measurements from patent US20110053916A1 (Vertex Pharmaceuticals Incorporated, priority 2009, published 2011).

SMILES strings stand for the structures. Bounds are passed on as bounds.

The test addresses T1, PknB (Mycobacterium tuberculosis, UniProt P9WI81).
T1 construct: made in house
The experiment in a line: biochemical. Further details: species or system M. tuberculosis. The note with it: 3 nM PknB, 6 uM GarA, 3 μM ATP, 30 min, competitive tight-binding fit, several symbols in a cell = repeat determinations; for Ki: read-out: Ki Values.

T1 sequence (P9WI81 whole entry): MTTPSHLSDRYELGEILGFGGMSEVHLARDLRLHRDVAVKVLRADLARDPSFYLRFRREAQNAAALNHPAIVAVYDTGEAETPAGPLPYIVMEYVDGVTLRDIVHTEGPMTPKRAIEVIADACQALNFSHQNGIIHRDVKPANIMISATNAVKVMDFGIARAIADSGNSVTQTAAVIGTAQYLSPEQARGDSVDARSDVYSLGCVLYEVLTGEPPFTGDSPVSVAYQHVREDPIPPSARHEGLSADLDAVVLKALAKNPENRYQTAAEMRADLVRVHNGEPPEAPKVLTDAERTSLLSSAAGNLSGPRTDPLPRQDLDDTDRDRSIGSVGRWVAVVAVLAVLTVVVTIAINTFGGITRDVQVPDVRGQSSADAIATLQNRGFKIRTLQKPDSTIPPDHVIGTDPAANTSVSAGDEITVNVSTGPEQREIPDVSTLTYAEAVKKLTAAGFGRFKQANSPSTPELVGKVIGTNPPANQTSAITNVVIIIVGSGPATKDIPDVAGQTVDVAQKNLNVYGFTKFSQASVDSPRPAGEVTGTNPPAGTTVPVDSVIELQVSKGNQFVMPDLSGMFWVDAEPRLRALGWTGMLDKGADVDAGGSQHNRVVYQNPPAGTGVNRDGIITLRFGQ

For the molecule `NS(=O)(=O)c1ccc(-c2nccc(Nc3cc(C4CC4)[nH]n3)n2)s1` [Compound 50, 5-(4-(5-cyclopropyl-1H-pyrazol-3-ylamino)pyrimidin-2-yl)thiophene-2-sulfonamide], the Ki was in the range of 1 to 10 nM.
On the same count and under the same terms, the value for `NS(=O)(=O)c1ccc(-c2ncc(F)c(Nc3cc(C4CC4)[nH]n3)n2)s1` [Compound 52, 5-(4-(5-cyclopropyl-1H-pyrazol-3-ylamino)-5-fluoropyrimidin-2-yl)thiophene-2-sulfonamide] was 1 to 10 nM.
Same read-out and setting: the value for `NS(=O)(=O)C/C=C/c1nccc(Nc2cc(C3CC3)[nH]n2)n1` [Compound 54, 3-[4-[(5-cyclopropyl-1H-pyrazol-3-yl)amino]pyrimidin-2-yl]prop-2-ene-1-sulfonamide] was 1000 to 2000 nM.
With `Oc1cnc(-c2ccccc2)nc1Nc1cc(C2CC2)[nH]n1` [Compound 55, 4-(5-cyclopropyl-1H-pyrazol-3-ylamino)-2-phenylpyrimidin-5-ol], the inhibitory constant (Ki) is 1000 to 2000 nM.
The same measure, in the same setting: the value for `CC(C)(C)NS(=O)(=O)C/C=C/c1nccc(Nc2cc(C3CC3)[nH]n2)n1` [Compound 56, 3-[4-[(5-cyclopropyl-1H-pyrazol-3-yl)amino]pyrimidin-2-yl]-N-tert-butyl-prop-2-ene-1-sulfonamide] was 1000 to 2000 nM; that for `O=C(O)c1ccc(Nc2nccc(Nc3cc(C4CC4)n[nH]3)n2)cc1` [Compound 57, 4-[[4-[(5-cyclopropyl-2H-pyrazol-3-yl)amino]pyrimidin-2-yl]amino]benzoic acid] was 100 to 500 nM.
As to `NS(=O)(=O)c1cc(-c2ncc(Cl)c(Nc3cc(C4CC4)[nH]n3)n2)ccc1Cl` [Compound 58, 2-chloro-5-[5-chloro-4-[(5-cyclopropyl-1H-pyrazol-3-yl)amino]-pyrimidin-2-yl]-benzenesulfonamide], the “Ki Values” is “B, C, C”.
Same read-out and setting: the value for `N#CCc1ccc(Nc2ncc(Cl)c(Nc3cc(C4CC4)[nH]n3)n2)cc1` [Compound 59, 2-[4-[[5-chloro-4-[(5-cyclopropyl-1H-pyrazol-3-yl)amino]-pyrimidin-2-yl]amino]phenyl]acetonitrile] was “B**, B*, B*”.
Still for that read-out and setting: the value for `NC(=O)c1ccc(Nc2nccc(Nc3cc(C4CC4)n[nH]3)n2)cc1` [Compound 60, 4-[[4-[(5-cyclopropyl-2H-pyrazol-3-yl)amino]pyrimidin-2-yl]amino]benzamide] was “C, C, D”; that for `O=S(=O)(NCCO)c1ccc(-c2ncc(Cl)c(Nc3cc(C4CC4)[nH]n3)n2)cc1` [Compound 61, 4-[5-chloro-4-[(5-cyclopropyl-1H-pyrazol-3-yl)amino]-pyrimidin-2-yl]-N-(2-hydroxyethyl)benzenesulfonamide] was “A, C, D”.
For the molecule `Clc1cnc(Nc2ccc3[nH]ncc3c2)nc1Nc1cc(C2CC2)[nH]n1` [Compound 62, 5-chloro-N4-(5-cyclopropyl-1H-pyrazol-3-yl)-N2-(1H-indazol-5-yl)pyrimidine-2,4-diamine], the Ki is greater than 4000 nM.
For the molecule `c1cc(Nc2cc(C3CC3)[nH]n2)nc(N2CCCCC2)n1` [Compound 64, N-(5-cyclopropyl-1H-pyrazol-3-yl)-2-(1-piperidyl)pyrimidin-4-amine], the “Ki Values” is on record as “A*, B**”.
Still for that read-out and setting: with `c1cc(Nc2cc(C3CC3)[nH]n2)nc(N2CCC(N3CCCCC3)CC2)n1` [Compound 65, N-(5-cyclopropyl-1H-pyrazol-3-yl)-2-[4-(1-piperidyl)-1-piperidyl]-pyrimidin-4-amine] the entry was “C, D, D”; with `COc1cnc(N2CCCCC2)nc1Nc1cc(C2CC2)[nH]n1` [Compound 68, N-(5-cyclopropyl-1H-pyrazol-3-yl)-5-methoxy-2-(1-piperidyl)pyrimidin-4-amine], “A, B**”.
Regarding `COCc1cnc(N2CCN(C)CC2)nc1Nc1cc(C2CC2)[nH]n1` [Compound 69, N-(5-cyclopropyl-1H-pyrazol-3-yl)-5-(methoxymethyl)-2-(4-methylpiperazin-1-yl)-pyrimidin-4-amine], the inhibition constant Ki was greater than 4000 nM.
`COCc1cnc(N2CCCCC2)nc1Nc1cc(C2CC2)[nH]n1` [Compound 70, N-(5-cyclopropyl-1H-pyrazol-3-yl)-5-(methoxymethyl)-2-(1-piperidyl)pyrimidin-4-amine]: the Ki is greater than 4000 nM.
`COCc1cnc(N2CCC(N3CCCCC3)CC2)nc1Nc1cc(C2CC2)[nH]n1` [Compound 71, N-(5-cyclopropyl-1H-pyrazol-3-yl)-5-(methoxymethyl)-2-[4-(1-piperidyl)-1-piperidyl]-pyrimidin-4-amine]: the Ki was in the range of 1000 to 2000 nM.
In the case of `CCCc1cnc(N2CCN(C)CC2)nc1Nc1cc(C2CC2)[nH]n1` [Compound 72, N-(5-cyclopropyl-1H-pyrazol-3-yl)-2-(4-methylpiperazin-1-yl)-5-propyl-pyrimidin-4-amine], the Ki was greater than 4000 nM.
Take `O=C(O)c1cccc(Nc2ncc(Cl)c(Nc3cc(C4CC4)[nH]n3)n2)c1` [Compound 73, 3-[[5-chloro-4-[(5-cyclopropyl-1H-pyrazol-3-yl)amino]-pyrimidin-2-yl]amino]benzoic acid]: the Ki is 100 to 500 nM.
For the molecule `NCCNS(=O)(=O)c1ccc(-c2ncc(Cl)c(Nc3cc(C4CC4)[nH]n3)n2)s1` [Compound 75, N-(2-aminoethyl)-5-(5-chloro-4-(5-cyclopropyl-1H-pyrazol-3-ylamino)pyrimidin-2-yl)thiophene-2-sulfonamide], the Ki lay in the range of 1 to 10 nM.
Regarding `Cc1cc(Nc2ccnc(Nc3ccc(S(N)(=O)=O)cc3)n2)[nH]n1` [Compound 76, 4-[[4-[(5-methyl-2H-pyrazol-3-yl)amino]pyrimidin-2-yl]amino]benzenesulfonamide], the Ki fell in the range of 10 to 50 nM.
Still for that read-out and setting: with `NS(=O)(=O)c1cccc(Nc2nccc(Nc3cc(C4CC4)n[nH]3)n2)c1` [Compound 82] the figure was 50 to 100 nM; with `N#Cc1ccc(Nc2ncc(Cl)c(Nc3cc(C4CC4)[nH]n3)n2)cc1` [Compound 84, 4-[[5-chloro-4-[(5-cyclopropyl-1H-pyrazol-3-yl)amino]-pyrimidin-2-yl]amino]benzonitrile], 10 to 50 nM.
`C#Cc1cnc(-c2ccc(CC#N)cc2)nc1Nc1cc(C2CC2)[nH]n1` [Compound 85, 2-(4-(4-(5-cyclopropyl-1H-pyrazol-3-ylamino)-5-ethynylpyrimidin-2-yl)phenyl)acetonitrile]: the inhibitory constant (Ki) was in the range of 10 to 50 nM.
As for `CC(C)(O)c1ccc(-c2ncc(Cl)c(Nc3cc(C4CC4)[nH]n3)n2)s1` [Compound 87, 2-(5-(5-chloro-4-(5-cyclopropyl-1H-pyrazol-3-ylamino)pyrimidin-2-yl)thiophen-2-yl)propan-2-ol], the “Ki Values” is recorded as “A**, A*”.
Take `N#Cc1cccc(Nc2ncc(Cl)c(Nc3cc(C4CC4)[nH]n3)n2)c1` [Compound 89, 3-[[5-chloro-4-[(5-cyclopropyl-1H-pyrazol-3-yl)amino]-pyrimidin-2-yl]amino]benzonitrile]: the Ki is 100 to 500 nM.
For `N#CCc1ccc(-c2ncc(N)c(Nc3cc(C4CC4)[nH]n3)n2)cc1` [Compound 92, 2-(4-(5-amino-4-(5-cyclopropyl-1H-pyrazol-3-ylamino)pyrimidin-2-yl)phenyl)acetonitrile], the Ki lay within 10 to 50 nM.
As to `O=S(=O)(NCCO)c1cccc(-c2ncc(Cl)c(Nc3cc(C4CC4)[nH]n3)n2)c1` [Compound 95, 3-[5-chloro-4-[(5-cyclopropyl-1H-pyrazol-3-yl)amino]-pyrimidin-2-yl]-N-(2-hydroxyethyl)benzenesulfonamide], the “Ki Values” was “A*, A”.
With `CC(=O)NCCNS(=O)(=O)c1cccc(-c2ncc(Cl)c(Nc3cc(C4CC4)[nH]n3)n2)c1` [Compound 96, N-[2-[[3-[5-chloro-4-[(5-cyclopropyl-1H-pyrazol-3-yl)amino]-pyrimidin-2-yl]phenyl]sulfonylamino]ethyl]acetamide], the inhibition constant (Ki) is 10 to 50 nM.
On the same count and under the same terms, the value for `CN(C)CCNS(=O)(=O)c1cccc(-c2ncc(Cl)c(Nc3cc(C4CC4)[nH]n3)n2)c1` [Compound 97, 3-[5-chloro-4-[(5-cyclopropyl-1H-pyrazol-3-yl)amino]-pyrimidin-2-yl]-N-(2-dimethylaminoethyl)benzenesulfonamide] was 10 to 50 nM; that for `Nc1cccc(Nc2nccc(Nc3cc(C4CC4)n[nH]3)n2)c1` [Compound 100, N-(3-aminophenyl)-N′-(5-cyclopropyl-2H-pyrazol-3-yl)-pyrimidine-2,4-diamine] was 100 to 500 nM.
For the molecule `C#Cc1cnc(Nc2ccc(CC#N)cc2)nc1Nc1cc(C2CC2)[nH]n1` [Compound 101, 2-(4-(4-(5-Cyclopropyl-1H-pyrazol-3-ylamino)-5-ethynylpyrimidin-2-ylamino)phenyl)acetonitrile], the “Ki Values” is recorded as “A*, A*, A”.
On to `CC(C)(C)NS(=O)(=O)c1cccc(-c2ncc(O)c(Nc3cc(C4CC4)n[nH]3)n2)c1` [Compound 102, N-tert-butyl-3-(4-(3-cyclopropyl-1H-pyrazol-5-ylamino)-5-hydroxypyrimidin-2-yl)benzenesulfonamide], for which the Ki was 50 to 100 nM.
For the molecule `O=C(NC1CCCCC1)c1nccc(Nc2cc(C3CC3)n[nH]2)n1` [Compound 109, N-cyclohexyl-4-[(5-cyclopropyl-2H-pyrazol-3-yl)amino]pyrimidine-2-carboxamide], the “Ki Values” is recorded as “B, B*”.
Take `C#Cc1cnc(-c2cccc(S(N)(=O)=O)c2)nc1Nc1cc(C2CC2)[nH]n1` [Compound 110, 3-(4-(5-cyclopropyl-1H-pyrazol-3-ylamino)-5-ethynylpyrimidin-2-yl)benzene sulfonamide]: the inhibition constant (Ki) lay within 10 to 50 nM.
Take `CC(=O)c1ccc(-c2ncc(Cl)c(Nc3cc(C4CC4)[nH]n3)n2)s1` [Compound 116, 1-(5-(5-chloro-4-(5-cyclopropyl-1H-pyrazol-3-ylamino)pyrimidin-2-yl)thiophen-2-yl)ethanone]: the “Ki Values” is listed as “A**, A*”.
Take `CC(=O)NCCNS(=O)(=O)c1ccc(-c2ncc(Cl)c(Nc3cc(C4CC4)[nH]n3)n2)s1` [Compound 118, N-(2-(5-(5-chloro-4-(5-cyclopropyl-1H-pyrazol-3-ylamino)pyrimidin-2-yl)thiophene-2-sulfonamido)ethyl)acetamide]: the inhibition constant Ki lay within 10 to 50 nM.
